Source: US6403575B1, “3-Pyridyl enantiomers and their use as analgesics” (Abbott Laboratories, priority 1996, dated 2002)
Entries after “also recorded” stand apart in the source; their conditions may differ. Structures can show the parent of a compound that is named as a salt.

Key:
rats [1] = assay: Chung Model of Neuropathic Pain following repeated dosing; assay type: in vivo; conditions: rat; for anti-allodynic effect following repeated dosing: in vivo, ip
Procedure: Animals were surgically prepared as described above for the Chung model. For assessment of each test compound, two treatment groups (6 animals each) were established. One group was injected (i.p.) with test compound twice daily for 5 days, and the other group was injected on the same schedule with saline. Responses to von Frey hairs were assessed as described above both before, and 15 minutes after, injection on the first 2 days and also on the 5th day. The saline-treatment group was given saline for the first 4 days and on the morning of the 5th day, but received a challenge of the test compound in the afternoon of the fifth day.

[2] = molecular target: T1, neuronal nicotinic acetylcholine receptors (Rattus norvegicus, UniProt P09483+P12390); assay: [3H]-cytisine binding to neuronal nicotinic acetylcholine receptors, whole rat brain membranes; conditions: [3H]-cytisine 1.25 nM, whole rat brain membranes; read-out: [3H] CYT Ki
T1 construct: crude synaptic membrane preparations from whole rat brain; from tissue; host or cells: whole rat brain, crude synaptic membranes
In short: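 Crude synaptic membranes from whole rat brain (125-150 μg protein) incubated with test compound and 1.25 nM [3H]-cytisine for 60 min at 4 °C in Tris-Cl buffer pH 7.4 with Na/K/Mg/Ca salts. Filtration through PEI-soaked filters; nonspecific binding with 10 μM (−)-nicotine; values as percentage of total binding.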

mice [3] = assay: Mouse Hot Plate Paradigm; assay type: in vivo; conditions: ip, 0.5 h, i.p., 30 minutes prior to testing, 55° C., read-out: MED Hot plate model (μmol/kg, i.p.)
[4] = molecular target: T2, peripheral ganglionic receptors (Homo sapiens, UniProt P30926+P32297); assay: 86Rb+ flux activation in IMR-32 human neuroblastoma cells; assay type: cell-based; conditions: 1 μM compound, % of maximum response to (S)-nicotine
T2 construct: Cells of the IMR-32 human neuroblastoma clonal cell line (ATCC, Rockville, Md.); host or cells: IMR-32 human neuroblastoma cells
Procedure: Protocol for the Determination of Ability of Nicotinic Acetylcholine Receptor Ligands to Activate Peripheral Ganglionic Receptors
Cells of the IMR-32 human neuroblastoma clonal cell line (ATCC, Rockville, Md.) were maintained in a log phase of growth according to established procedures. Experimental cells were seeded at a density of 500,000 cells/mL into a 24-well tissue culture dish. Plated cells were allowed to proliferate for at least 48 hours before loading with 2 μCi/mL of ^86Rb^+ (35 Ci/mmol) overnight at 37° C. The ^86Rb^+ efflux assays were performed according to previously published protocols (Lukas, R. J., J. Pharmacol. Exp. Ther., 265: 294-302, 1993) except serum-free Dulbecco's Modified Eagle's Medium was used during the ^86Rb^+ loading, rinsing, and agonist-induced efflux steps. Data reflect the activation of ^86Rb^+ flux at a concentration of 1 μM, and reflect the response as a percentage of the maximum response elicited by (S)-nicotine.

mice [5] = assay type: in vivo; conditions: mouse, i.p.
Procedure: Motor coordination was assessed using an accelerating rotarod apparatus (Omnitech Electronics, Inc., Columbus, Ohio). Locomotor activity was monitored under dim light in a 41×41 cm. open field using a photobeam activity system (San Diego Instruments, San Diego, Calif.). The mouse was placed on a 3.5 cm diameter rod which increased in speed from 0 to 40 rpm over 120 seconds. The time required for the mouse to fall from the rod was recorded with a maximum score of 120 seconds. Twenty-five min after receiving an i.p. injection, the mice were placed in the open field for 5 min. After removal from the open field (i.e., 30 min after injection), they were immediately tested on the rotarod. Body temperature was assessed using a probe inserted 3 cm into the rectum approximately 35 min after injection. (YSI Tele-Thermometer, Yellow Springs Instrument Co., Inc., Yellow Springs, Ohio). Diazepam (10.5 μmol/kg, i.p.) was used as a positive control.

rats [6] = assay: Chung Model of Neuropathic Pain; assay type: in vivo; conditions: rat, 50% threshold to VonFrey hairs
rat spinal cord cultures = assay: Neuroprotection against substance P or glutamate toxicity in primary spinal cord cultures (LDH release); assay type: cell-based; conditions: rat spinal cord cultures
[7] = molecular target: neuromuscular junction nicotinic acetylcholine receptor (Tetronarce californica, UniProt P02710+P02714+P02718); assay: biochemical; assay type: binding, Torpedo Californica
mice [8] = conditions: mouse, in vivo, ip
Procedure: Compounds were co-mixed in a syringe, and co-administered via the intraperitoneal route 30 min prior to testing in the mouse hot-plate paradigm as indicated above. Separate groups of animals (n=7-8/group) were used for each dose group.

rats [9] = assay: Formalin Model of Persistent Pain; assay type: in vivo; conditions: rat, oral, 0.1-0.3 umol/kg, 15 minutes prior to formalin, second phase
rats [10] = assay: Carrageenan paw edema model; assay type: in vivo; conditions: rat, i.p.

T1 sequence (P09483 31-630): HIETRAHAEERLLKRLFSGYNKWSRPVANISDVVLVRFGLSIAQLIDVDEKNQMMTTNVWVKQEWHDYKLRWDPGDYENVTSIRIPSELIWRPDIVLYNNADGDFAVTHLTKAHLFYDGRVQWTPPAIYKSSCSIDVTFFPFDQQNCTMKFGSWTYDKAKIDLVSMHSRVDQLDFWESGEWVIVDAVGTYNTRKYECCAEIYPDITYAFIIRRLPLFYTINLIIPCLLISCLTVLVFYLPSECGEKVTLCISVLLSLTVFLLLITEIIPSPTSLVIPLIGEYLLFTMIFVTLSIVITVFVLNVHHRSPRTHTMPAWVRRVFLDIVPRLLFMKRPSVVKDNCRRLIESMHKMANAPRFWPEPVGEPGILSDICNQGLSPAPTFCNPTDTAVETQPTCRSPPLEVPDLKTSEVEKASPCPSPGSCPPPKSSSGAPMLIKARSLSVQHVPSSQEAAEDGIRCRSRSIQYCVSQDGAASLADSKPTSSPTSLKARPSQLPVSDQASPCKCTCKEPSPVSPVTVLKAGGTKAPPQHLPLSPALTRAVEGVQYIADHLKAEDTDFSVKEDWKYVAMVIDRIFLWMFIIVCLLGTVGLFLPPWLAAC
T1 sequence (P12390 25-500): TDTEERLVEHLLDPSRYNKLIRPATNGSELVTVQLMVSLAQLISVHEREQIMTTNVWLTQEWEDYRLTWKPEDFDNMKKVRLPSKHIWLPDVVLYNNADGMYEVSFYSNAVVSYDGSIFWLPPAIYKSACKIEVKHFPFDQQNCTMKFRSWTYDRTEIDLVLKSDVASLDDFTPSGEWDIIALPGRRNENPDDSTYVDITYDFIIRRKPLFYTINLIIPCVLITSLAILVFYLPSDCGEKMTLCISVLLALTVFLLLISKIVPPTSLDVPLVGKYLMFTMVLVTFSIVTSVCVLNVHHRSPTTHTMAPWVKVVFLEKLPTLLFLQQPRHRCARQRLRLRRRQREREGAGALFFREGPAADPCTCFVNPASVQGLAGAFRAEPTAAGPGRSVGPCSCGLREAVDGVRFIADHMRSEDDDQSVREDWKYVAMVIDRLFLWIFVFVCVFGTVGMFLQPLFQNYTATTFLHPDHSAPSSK
T2 sequence (P32297 32-505): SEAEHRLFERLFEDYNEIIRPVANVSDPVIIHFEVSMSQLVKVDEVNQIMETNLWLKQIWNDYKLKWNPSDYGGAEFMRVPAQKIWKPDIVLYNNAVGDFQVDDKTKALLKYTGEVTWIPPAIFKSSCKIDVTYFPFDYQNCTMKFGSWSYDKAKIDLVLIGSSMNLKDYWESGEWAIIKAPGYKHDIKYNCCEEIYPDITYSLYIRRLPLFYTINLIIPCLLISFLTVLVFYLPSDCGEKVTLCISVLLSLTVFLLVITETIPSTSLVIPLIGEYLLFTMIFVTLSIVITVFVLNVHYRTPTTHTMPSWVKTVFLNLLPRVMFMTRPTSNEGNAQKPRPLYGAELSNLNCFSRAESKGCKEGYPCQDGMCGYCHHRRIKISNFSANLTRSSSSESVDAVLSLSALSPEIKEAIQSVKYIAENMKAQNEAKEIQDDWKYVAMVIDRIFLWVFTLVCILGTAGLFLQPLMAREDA
T2 sequence (P30926 22-498): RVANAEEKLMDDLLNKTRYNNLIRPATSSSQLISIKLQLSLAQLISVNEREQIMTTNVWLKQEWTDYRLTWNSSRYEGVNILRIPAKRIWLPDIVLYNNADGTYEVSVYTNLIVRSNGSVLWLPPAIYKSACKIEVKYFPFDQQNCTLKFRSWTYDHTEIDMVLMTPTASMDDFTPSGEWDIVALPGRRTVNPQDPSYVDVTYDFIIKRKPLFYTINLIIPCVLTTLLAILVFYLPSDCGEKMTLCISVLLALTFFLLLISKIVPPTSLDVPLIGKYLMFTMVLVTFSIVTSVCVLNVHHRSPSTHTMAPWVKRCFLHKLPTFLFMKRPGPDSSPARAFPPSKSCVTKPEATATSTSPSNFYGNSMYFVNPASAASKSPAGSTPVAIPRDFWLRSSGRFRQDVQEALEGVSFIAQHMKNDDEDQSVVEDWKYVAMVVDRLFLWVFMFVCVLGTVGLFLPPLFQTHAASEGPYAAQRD
Sequence of neuromuscular junction nicotinic acetylcholine receptor (P02714 18-506): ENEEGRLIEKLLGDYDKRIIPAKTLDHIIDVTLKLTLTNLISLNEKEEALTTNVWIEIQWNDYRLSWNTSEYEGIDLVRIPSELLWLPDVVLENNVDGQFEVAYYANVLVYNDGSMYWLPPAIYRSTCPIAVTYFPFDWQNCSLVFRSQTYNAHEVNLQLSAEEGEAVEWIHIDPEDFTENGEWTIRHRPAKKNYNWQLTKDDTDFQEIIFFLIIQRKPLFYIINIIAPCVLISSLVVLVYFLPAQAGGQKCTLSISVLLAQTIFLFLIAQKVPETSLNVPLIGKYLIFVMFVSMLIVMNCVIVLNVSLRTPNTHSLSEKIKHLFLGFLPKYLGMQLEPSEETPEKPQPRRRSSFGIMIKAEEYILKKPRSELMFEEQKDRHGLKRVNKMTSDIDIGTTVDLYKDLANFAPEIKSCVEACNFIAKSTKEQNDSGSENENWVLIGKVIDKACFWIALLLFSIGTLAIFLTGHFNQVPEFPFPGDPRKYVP
Sequence of neuromuscular junction nicotinic acetylcholine receptor (P02710 25-461): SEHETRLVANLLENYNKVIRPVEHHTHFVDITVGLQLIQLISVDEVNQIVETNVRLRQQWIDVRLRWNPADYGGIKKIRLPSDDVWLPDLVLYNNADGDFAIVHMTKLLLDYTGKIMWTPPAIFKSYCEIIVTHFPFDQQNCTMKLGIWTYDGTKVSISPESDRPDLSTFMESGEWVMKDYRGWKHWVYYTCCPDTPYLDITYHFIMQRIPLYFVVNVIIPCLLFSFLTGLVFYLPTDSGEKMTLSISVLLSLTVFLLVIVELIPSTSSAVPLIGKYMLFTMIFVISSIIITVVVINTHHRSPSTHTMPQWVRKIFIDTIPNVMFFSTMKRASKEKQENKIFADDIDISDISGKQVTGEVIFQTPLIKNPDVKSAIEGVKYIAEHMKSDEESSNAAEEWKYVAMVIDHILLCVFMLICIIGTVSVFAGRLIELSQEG
Sequence of neuromuscular junction nicotinic acetylcholine receptor (P02712 25-493, further chain): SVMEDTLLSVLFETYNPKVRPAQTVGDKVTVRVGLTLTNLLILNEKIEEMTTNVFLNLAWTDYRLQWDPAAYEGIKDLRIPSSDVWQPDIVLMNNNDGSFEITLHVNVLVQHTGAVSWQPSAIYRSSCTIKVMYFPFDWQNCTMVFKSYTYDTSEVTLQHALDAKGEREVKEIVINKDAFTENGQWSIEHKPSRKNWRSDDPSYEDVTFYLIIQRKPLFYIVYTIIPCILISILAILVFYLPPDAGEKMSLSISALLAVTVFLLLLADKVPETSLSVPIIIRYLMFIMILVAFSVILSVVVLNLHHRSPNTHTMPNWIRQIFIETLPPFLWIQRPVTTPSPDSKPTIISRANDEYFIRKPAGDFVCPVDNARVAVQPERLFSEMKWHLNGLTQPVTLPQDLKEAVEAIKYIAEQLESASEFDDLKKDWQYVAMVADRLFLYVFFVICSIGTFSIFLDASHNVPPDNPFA
Sequence of neuromuscular junction nicotinic acetylcholine receptor (P02718 22-522): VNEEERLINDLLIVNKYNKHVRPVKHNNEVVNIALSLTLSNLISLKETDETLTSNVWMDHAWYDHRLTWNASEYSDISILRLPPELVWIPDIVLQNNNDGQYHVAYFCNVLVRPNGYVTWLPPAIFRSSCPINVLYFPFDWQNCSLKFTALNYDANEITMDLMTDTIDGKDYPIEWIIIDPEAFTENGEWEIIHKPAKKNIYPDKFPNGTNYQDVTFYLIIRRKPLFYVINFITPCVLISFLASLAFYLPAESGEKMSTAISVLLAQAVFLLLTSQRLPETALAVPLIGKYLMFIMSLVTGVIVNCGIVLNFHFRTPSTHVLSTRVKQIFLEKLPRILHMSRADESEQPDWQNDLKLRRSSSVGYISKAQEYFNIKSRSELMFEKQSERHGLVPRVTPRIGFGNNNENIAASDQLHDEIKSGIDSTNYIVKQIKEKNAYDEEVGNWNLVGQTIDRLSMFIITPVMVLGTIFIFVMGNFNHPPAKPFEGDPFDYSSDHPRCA

| SMILES | anti-allodynic effect following repeated dosing (rats [1]) | Ki [2] | minimal effective dose (mice [3]) | IMR-32 % maximal nicotine response at 1 μM Cmpd conc'n [4] | dose at which a rotarod effect was reached (mice [5]) | MED Chung model (μmol/kg, i.p.) (rats [6]) | protection against SP- and Glu-induced neurotoxicity (rat spinal cord cultures; SP 30 μM or Glu 300 μM, hydrochloride) | EC50 (rat spinal cord cultures; SP and Glu-induced neurotoxicity) | Ki [7] | reduced affinity for the neuromuscular junction nicotinic acetylcholine receptor [7] | antinociceptive activity combined with effective doses of morphine (mice [8]) | antinociceptive activity combined with subthreshold doses of morphine (mice [8]) | antinociceptive effects when coadministered with morphine (mice [8]) | anti-allodynic effects during each test session (rats [1]; 0.3 μmol/kg, i.p., b.i.d., 5 days) | antinociceptive effects in the Formalin Model (rats [9]) | ED30 reduction of carrageenan-induced paw edema (rats [10]) | efficacy to reduce paw edema compared with dexamethasone (rats [10]; hydrochloride) | dose showing rotarod impairments (mice [5]; in 2 of 3 experiments) |
| --- | --- | --- | --- | --- | --- | --- | --- | --- | --- | --- | --- | --- | --- | --- | --- | --- | --- | --- |
| CN1CC[C@]23c4c5ccc(O)c4O[C@H]2[C@@H](O)C=C[C@H]3[C@H]1C5 [morphine, reference compound] | significantly reduced | – | – | – | – | – | – | – | – | – | – | – | – | – | – | – | – | – |
| Fc1ccc(OCC2CCN2)cn1 [Example 8, 5-(2R)-Azetidinylmethyloxy)-2-fluoropyridine dibenzoate] | – | 0.06 nM | 1.9 µmol/kg | 46% | 19 | 0.62 µmol/kg | – | – | – | – | – | – | – | – | – | – | – | – |
| Clc1ccc(OC[C@H]2CCN2)cn1 [Example 4, 5-((2R)-Azetidinylmethyloxy)-2-chloropyridine hydrochloride] | does not decrease following repeated dosing | 0.05 nM | 0.62 µmol/kg | 97% | – | 0.3 µmol/kg | protects against SP-induced neurotoxicity; also recorded: reduces both SP and Glu-induced neurotoxicity | 10000 nM | 16600 nM | 12.8 fold | enhanced antinociceptive activity | can produce effective antinociceptive activity | produced effective antinociceptive effects | Significant anti-allodynic effects | produced significant antinociceptive effects | 0.21 µmol/kg | as effective as dexamethansone; also recorded: as efficacious as dexamethasone | – |
| Fc1ccc(OC[C@@H]2CCN2)cn1 [Example 9, 5-(2S)-Azetidinylmethyloxy)-2-fluoropyridine dibenzoate] | – | 0.16 nM | 0.62 µmol/kg | 103% | – | – | – | – | – | – | – | – | – | – | – | – | – | 0.62 µmol/kg |
